Reference: patent publication US5489582A, “14-deoxy-14α-cardenolides 3β-thioderivatives and pharmaceutical composition comprising same for treating cardiovascular disorders” (Sigma-Tau Industrie Farmaceutiche Riuntie S.p.A, priority 1992, dated 1996)
Where a name gives a salt, the structure may show the parent alone.

What was measured:
hypertensive MHS rats = assay: systolic blood pressure and heart rate in hypertensive MHS rats, indirect tail-cuff method, oral; format: in vivo, rat (MHS); settings: n=7, 20 mg/kg os daily for ten days, in METHOCEL 0.5% w/v; for SBP (systolic blood pressure): controls 174 +/- 5.5; for HR (heart rate): controls 378 +/- 11.0
Protocol: The ability of these compounds to lower blood pressure in adult hypertensive MHS rats was tested by the following method:
systolic blood pressure (SBP) and heart rate (HR) were measured by an indirect tail-cuff method in three-month old hypertensive MHS rats before beginning treatment (basal values). The rats were then subdivided in two groups of 7 animals each, one receiving the compound and the other, the control group, receiving only the vehicle. The compound, suspended in METHOCEL® 0.5% (w/v), for ten days, was administered daily by mouth. SBP and HR were measured daily 6 and 24 hours after the treatment. When ten-day treatment washout had been under way for at least two days, whether the treatment maintains SBP low or re-establish the basal values was verified. […]

Na^+,K^+ -ATPase [1] = biological target: T1, Na^+,K^+ -ATPase (Homo sapiens, UniProt P05023); assay: inhibition of the activity of the purified Na+,K+-ATPase (% hydrolysis of 32P-ATP); format: biochemical
T1 construct: Na^+,K^+ -ATPase receptor purified according to Jorghensen; from tissue
Source text: (§1) To test the affinity for the receptor site of the Na^+,K^+ -ATPase and the agonist or inhibitory activity on the enzyme, the following tests were used: a) displacement of the specific 3H-ouabain binding from the Na^+,K^+ -ATPase receptor purified according to Jorghensen (Jorghensen P., BBA, 1974, 356, 36) and Erdmann (Erdmann E. et al., Arzneim. Forsh., 1984, 34 (II), 1314); b) inhibition of the activity of the purified Na^+,K^+ -ATPase measured as % of hydrolysis of ^32 P-ATP in presence and in absence of the tested compound (Mall F. et al., Biochem. Pharmacol., 1984, 33, 47).

Na^+,K^+ -ATPase [2] = biological target: T1, Na^+,K^+ -ATPase; assay: displacement of the specific 3H-ouabain binding from the purified Na+,K+-ATPase receptor
Source text: as §1

[3] = 3H-ouabain displacement, purified Na+,K+-ATPase, read-out: Binding ^3 H-Ouab. Displacement log. IC50 (converted)
[4] = purified Na+,K+-ATPase, 32P-ATP hydrolysis, read-out: Inhibitory Activity log. IC50 (converted)

Compound | SBP (systolic blood pressure) (hypertensive MHS rats) | HR (heart rate) (hypertensive MHS rats) | IC50 (Na^+,K^+ -ATPase [1]) | IC50 (Na^+,K^+ -ATPase [2]; [3]) | IC50 (Na^+,K^+ -ATPase [2]) | IC50 (Na^+,K^+ -ATPase [1]; [4])
C[C@]12CC[C@H](O)C[C@H]1CC[C@@H]1[C@@H]2CC[C@]2(C)[C@@H](C3=CC(=O)OC3)CC[C@]12O [DIGI, digitoxigenin, reference compound] | 173 +/- 4.0 mm Hg | 380 +/- 10.0 beats/min. |  |  |  | 
C[C@]12CC[C@H](SCCN3CCCC3)C[C@H]1CC[C@@H]1[C@@H]2CC[C@]2(C)[C@@H](C3=CC(=O)OC3)CC[C@@H]12 [I-a, 3β-(2-(1-Pyrrolidinyl)ethylthio)-5β,14α-card-20(22)-enolideOxalate] |  |  | 5010 nM | 3160 nM |  | 
CN(C)CCCS[C@H]1CC[C@@]2(C)[C@H](CC[C@@H]3[C@@H]2CC[C@]2(C)[C@@H](C4=CC(=O)OC4)CC[C@@H]32)C1 [I-b, 3β-(3-Dimethylaminopropylthio)-5β,14α-card-20(22)-enolide Oxalate] |  |  | 3160 nM | 1000 nM |  | 
C[C@]12CC[C@H](SCCCN3CCNCC3)C[C@H]1CC[C@@H]1[C@@H]2CC[C@]2(C)[C@@H](C3=CC(=O)OC3)CC[C@@H]12 [I-c, 3β-(3-(1-Piperazinyl)propylthio)-5β,14α-card-20(22)-enolideDioxalate] | 144 +/- 6.2 mm Hg | 390 +/- 12.0 beats/min. | 1580 nM | 794 nM |  | 
C[C@]12CC[C@H](SCCCN)C[C@H]1CC[C@@H]1[C@@H]2CC[C@]2(C)[C@@H](C3=CC(=O)OC3)CC[C@@H]12 [I-d, 3β-(3-Aminopropylthio)-5β,14α-card-20(22)-enolide Oxalate] | 154 +/- 5.2 mm Hg | 384 +/- 10.3 beats/min. | 2000 nM |  | 1260 nM | 
C[C@]12CC[C@H](SCC(O)CN3CCCC3)C[C@H]1CC[C@@H]1[C@@H]2CC[C@]2(C)[C@@H](C3=CC(=O)OC3)CC[C@@H]12 (stereo partly drawn) [I-e, 3β-(3-(1-Pirrolidinyl)-2-hydroxypropylthio)-5β,14α-card-20(22)-enolide] |  |  |  | 2000 nM |  | 3980 nM
C[C@]12CC[C@H]3[C@@H](CCC4=C[C@@H](SCCCN)CC[C@@]43C)[C@@H]1CC[C@@H]2C1=CC(=O)OC1 [I-f, 3β-(3-Aminopropylthio)-14α-card-4,20(22)-dienolide Oxalate] | 148 +/- 5.6 mm Hg | 386 +/- 9.3 beats/min. |  | 1260 nM |  | 3160 nM
C[C@]12CC[C@H]3[C@@H](CC=C4C[C@@H](SCCCN)CC[C@@]43C)[C@@H]1CC[C@@H]2C1=CC(=O)OC1 [I-g, 3β-(3-Aminopropylthio)-14α-card-5,20(22)-dienolide Oxalate] | 150 +/- 5.2 mm Hg | 383 +/- 9.6 beats/min. |  | 1000 nM |  | 2000 nM
C[C@]12CC[C@H](SCCCN)C[C@@H]1CC[C@@H]1[C@@H]2CC[C@]2(C)[C@@H](C3=CC(=O)OC3)CC[C@@H]12 [I-h, 3β-(3-Aminopropylthio)-5α,14α-card-20(22)-enolide Oxalate] | 158 +/- 5.4 mm Hg | 379 +/- 10.4 beats/min. | 3980 nM |  | 1580 nM | 
